SMILES strings stand for the structures.

From paper PMC4669708 (Cell Death & Disease, 2015) come the findings set out here.

Assay in all cases: c-ponatinib pulldown LC-MS/MS
Holding throughout (format): binding

The target in one assay is ZAK (Homo sapiens, UniProt Q9NYL2). The essentials:
(§1)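 Affinity matrix: 25 nmol c-ponatinib/50 μl NHS-Sepharose; 10 mg whole cell lysate input; duplicate pulldowns, each run twice by LC-MS/MS. DTT/iodoacetamide, trypsin. Human SwissProt search, protein FDR <1%. Competition with free compound; fold reduction = median spectral count ratio.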

A further assay deals with T1, YWHAE (Homo sapiens, UniProt P62258).
T1 sequence (P62258 1-255): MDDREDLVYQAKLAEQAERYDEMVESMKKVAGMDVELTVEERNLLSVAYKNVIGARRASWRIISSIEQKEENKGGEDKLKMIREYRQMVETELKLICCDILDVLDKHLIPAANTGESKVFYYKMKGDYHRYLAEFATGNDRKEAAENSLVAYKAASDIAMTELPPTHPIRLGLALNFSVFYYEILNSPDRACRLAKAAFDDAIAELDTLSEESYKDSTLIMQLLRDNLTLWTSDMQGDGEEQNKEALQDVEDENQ
The essentials:
as §1

The next assay deals with MAP4K1 (Homo sapiens, UniProt Q92918). The gist of the method:
as §1

For another assay, the target named is CDK8 (Homo sapiens, UniProt P49336). The gist of the method:
as §1

The target of a further assay is TUBA1B (Homo sapiens, UniProt P68363). The gist of the method: as §1
Sequence of TUBA1B (P68363 whole entry): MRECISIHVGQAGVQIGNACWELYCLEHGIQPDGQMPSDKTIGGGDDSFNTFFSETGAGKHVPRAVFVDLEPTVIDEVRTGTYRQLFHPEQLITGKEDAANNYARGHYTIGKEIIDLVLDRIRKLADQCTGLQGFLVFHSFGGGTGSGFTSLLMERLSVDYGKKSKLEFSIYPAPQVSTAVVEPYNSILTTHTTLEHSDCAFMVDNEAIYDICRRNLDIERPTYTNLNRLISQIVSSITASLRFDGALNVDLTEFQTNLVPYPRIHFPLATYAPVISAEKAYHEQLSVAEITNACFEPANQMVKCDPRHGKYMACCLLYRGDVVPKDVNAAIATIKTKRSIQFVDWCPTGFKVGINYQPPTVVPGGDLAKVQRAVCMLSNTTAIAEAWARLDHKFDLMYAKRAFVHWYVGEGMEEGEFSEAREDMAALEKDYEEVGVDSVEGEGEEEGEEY
Sequence of TUBA1B (P07437 whole entry partner): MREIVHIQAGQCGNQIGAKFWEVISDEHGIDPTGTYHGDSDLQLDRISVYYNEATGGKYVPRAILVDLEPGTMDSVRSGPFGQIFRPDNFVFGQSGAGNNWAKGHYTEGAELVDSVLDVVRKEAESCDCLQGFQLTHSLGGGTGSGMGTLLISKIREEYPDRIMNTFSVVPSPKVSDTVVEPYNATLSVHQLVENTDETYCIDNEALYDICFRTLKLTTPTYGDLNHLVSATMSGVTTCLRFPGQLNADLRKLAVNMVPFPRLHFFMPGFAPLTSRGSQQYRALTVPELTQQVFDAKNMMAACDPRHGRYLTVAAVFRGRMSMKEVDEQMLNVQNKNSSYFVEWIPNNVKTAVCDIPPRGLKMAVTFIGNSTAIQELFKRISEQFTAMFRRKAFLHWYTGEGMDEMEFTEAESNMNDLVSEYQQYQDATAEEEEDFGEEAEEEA
The next assay deals with MINK1 (Homo sapiens, UniProt Q8N4C8). The gist of the method:
as §1

Sequence of CDK8 (P49336 whole entry): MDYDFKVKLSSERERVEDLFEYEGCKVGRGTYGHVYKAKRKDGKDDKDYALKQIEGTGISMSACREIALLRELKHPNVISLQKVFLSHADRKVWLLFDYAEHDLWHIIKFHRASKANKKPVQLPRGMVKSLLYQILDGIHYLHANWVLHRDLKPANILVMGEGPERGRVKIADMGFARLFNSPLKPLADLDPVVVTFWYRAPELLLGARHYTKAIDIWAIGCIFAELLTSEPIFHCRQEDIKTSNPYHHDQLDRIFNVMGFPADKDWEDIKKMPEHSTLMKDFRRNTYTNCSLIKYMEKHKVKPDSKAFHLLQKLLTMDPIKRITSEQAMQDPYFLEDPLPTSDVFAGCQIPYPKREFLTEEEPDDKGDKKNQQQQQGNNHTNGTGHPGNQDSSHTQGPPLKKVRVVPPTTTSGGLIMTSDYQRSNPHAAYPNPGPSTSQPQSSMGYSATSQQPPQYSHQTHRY
Sequence of CDK8 (P24863 whole entry partner): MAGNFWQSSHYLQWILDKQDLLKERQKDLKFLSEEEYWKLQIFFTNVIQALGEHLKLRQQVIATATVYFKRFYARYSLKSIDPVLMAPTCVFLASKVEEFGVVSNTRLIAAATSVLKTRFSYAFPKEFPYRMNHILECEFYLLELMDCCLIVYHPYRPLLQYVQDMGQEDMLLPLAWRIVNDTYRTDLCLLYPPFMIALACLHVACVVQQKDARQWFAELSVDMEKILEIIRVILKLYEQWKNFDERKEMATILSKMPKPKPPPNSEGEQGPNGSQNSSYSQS
Sequence of MINK1 (Q8N4C8 whole entry): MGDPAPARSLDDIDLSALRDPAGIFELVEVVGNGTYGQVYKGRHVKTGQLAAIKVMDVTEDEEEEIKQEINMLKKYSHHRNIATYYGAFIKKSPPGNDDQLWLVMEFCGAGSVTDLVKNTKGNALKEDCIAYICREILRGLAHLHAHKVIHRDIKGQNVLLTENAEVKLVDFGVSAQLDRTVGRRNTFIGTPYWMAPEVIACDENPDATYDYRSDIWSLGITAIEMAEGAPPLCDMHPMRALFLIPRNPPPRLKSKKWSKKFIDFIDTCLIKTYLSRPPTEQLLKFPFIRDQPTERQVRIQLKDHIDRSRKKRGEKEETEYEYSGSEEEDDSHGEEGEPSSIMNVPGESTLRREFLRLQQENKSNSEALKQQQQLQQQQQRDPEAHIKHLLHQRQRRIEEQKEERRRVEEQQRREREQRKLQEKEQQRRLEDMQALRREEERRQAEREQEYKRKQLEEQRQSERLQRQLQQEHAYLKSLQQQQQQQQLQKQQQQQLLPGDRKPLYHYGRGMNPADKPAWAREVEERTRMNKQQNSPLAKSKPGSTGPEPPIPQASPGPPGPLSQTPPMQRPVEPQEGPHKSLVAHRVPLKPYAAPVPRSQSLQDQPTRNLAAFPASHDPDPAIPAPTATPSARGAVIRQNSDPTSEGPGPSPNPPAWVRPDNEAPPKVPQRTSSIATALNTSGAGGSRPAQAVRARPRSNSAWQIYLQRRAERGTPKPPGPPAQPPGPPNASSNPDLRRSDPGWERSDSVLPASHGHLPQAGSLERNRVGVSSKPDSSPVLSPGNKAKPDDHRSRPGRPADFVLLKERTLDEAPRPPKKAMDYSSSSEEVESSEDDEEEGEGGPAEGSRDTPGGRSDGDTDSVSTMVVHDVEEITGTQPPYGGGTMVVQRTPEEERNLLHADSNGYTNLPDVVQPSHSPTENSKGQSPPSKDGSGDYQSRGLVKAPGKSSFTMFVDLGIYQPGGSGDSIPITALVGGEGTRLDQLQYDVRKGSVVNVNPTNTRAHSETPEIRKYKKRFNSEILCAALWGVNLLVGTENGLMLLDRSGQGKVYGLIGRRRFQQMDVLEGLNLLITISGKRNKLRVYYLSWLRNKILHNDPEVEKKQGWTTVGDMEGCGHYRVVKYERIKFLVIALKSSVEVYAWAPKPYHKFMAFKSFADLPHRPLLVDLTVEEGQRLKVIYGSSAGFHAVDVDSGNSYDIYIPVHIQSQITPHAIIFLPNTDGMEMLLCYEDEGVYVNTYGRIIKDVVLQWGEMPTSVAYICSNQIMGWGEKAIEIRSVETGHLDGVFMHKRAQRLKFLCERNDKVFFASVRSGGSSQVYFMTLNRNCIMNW
Sequence of MAP4K1 (Q92918 whole entry): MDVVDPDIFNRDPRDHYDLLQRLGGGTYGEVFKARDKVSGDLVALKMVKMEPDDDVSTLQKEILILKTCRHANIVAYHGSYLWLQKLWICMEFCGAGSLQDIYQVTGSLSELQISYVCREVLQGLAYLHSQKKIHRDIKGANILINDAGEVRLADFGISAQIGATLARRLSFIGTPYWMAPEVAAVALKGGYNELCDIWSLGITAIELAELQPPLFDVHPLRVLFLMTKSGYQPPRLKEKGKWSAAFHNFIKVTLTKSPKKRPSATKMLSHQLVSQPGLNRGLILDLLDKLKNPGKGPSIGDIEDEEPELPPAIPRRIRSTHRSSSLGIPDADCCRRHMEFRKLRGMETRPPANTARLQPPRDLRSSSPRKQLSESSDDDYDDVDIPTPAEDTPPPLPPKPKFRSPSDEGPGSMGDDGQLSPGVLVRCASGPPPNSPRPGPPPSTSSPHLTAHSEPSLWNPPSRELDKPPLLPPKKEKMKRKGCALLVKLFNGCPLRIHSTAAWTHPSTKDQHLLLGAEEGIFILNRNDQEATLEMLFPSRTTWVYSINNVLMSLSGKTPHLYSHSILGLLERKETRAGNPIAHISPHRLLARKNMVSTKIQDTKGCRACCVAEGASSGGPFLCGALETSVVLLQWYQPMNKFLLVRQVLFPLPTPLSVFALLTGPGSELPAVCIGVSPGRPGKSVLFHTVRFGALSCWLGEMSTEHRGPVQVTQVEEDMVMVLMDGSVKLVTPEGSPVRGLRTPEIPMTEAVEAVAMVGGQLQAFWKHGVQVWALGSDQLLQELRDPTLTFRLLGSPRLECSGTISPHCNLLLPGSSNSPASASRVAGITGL
Sequence of ZAK (Q9NYL2 whole entry): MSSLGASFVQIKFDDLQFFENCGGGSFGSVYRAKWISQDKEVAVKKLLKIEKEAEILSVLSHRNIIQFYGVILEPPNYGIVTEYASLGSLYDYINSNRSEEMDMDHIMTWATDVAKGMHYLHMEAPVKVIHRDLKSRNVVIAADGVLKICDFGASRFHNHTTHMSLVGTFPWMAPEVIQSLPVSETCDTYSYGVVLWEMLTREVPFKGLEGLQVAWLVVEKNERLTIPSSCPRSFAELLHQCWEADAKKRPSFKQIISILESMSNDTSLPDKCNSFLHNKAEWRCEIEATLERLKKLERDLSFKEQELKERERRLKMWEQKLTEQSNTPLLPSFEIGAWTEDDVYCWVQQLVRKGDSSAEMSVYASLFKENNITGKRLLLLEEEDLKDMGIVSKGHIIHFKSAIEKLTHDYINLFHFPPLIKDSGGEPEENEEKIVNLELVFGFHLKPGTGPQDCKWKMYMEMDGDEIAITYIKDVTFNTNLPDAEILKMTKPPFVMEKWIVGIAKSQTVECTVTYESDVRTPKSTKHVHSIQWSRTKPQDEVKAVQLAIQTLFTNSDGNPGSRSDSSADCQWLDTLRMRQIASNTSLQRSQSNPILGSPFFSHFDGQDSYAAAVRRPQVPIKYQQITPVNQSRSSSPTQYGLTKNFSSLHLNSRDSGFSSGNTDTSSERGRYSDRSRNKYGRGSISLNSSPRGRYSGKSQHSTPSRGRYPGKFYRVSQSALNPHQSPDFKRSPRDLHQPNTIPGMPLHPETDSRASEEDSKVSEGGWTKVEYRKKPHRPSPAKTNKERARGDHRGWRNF

In the case of `Cc1ccc(C(=O)Nc2ccc(CN3CCN(CCCN)CC3)c(C(F)(F)F)c2)cc1C#Cc1cnc2cccnn12` [c-ponatinib], the “Av. SC comp.” value at ZAK (+ free ponatinib) amounted to 0; at YWHAE (+ free ponatinib), 1; on MAP4K1 (+ free ponatinib), 2.5; at CDK8 (+ free ponatinib), 0; at TUBA1B (+ free ponatinib), 10.25; on MINK1 (+ free ponatinib) it was 0. Also, the “Total SC comp.” value was 0 at ZAK (+ free ponatinib); 4 at YWHAE (+ free ponatinib); 10 on MAP4K1 (+ free ponatinib); 0 on CDK8 (+ free ponatinib); 41 on TUBA1B (+ free ponatinib); 0 at MINK1 (+ free ponatinib). Moreover, the “Av. SC” value was found to be 65.25 at ZAK (no competitor); 13 at YWHAE (no competitor); 46.75 on MAP4K1 (no competitor); 3.75 at CDK8 (no competitor); 18.5 at TUBA1B (no competitor); 4 at MINK1 (no competitor). For the same compound, the “Total SC” value at ZAK (no competitor) is given as 261; on YWHAE (no competitor) it was 52; at MAP4K1 (no competitor), 187; on CDK8 (no competitor) it was 15; on TUBA1B (no competitor), 74; at MINK1 (no competitor), 16.
